We go through seven molecules from US7659400B2, “Radiolabelled benzamide analogues, their synthesis and use in diagnostic imaging” (Washington University, priority 2003, dated 2010).

Several values for one entry are separate records, joined by “and”; a condition that tells them apart may be missing. Identical values can stand only once. Like-named read-outs stand apart in the source and are kept apart here.

Data set [1] has as its target T1, σ2 receptors (Rattus norvegicus, UniProt Q5U3Y7).
T1 construct: conducted using rat liver membrane homogenates; from tissue; host or cells: rat liver membrane homogenates
T1 sequence (Q5U3Y7 1-176): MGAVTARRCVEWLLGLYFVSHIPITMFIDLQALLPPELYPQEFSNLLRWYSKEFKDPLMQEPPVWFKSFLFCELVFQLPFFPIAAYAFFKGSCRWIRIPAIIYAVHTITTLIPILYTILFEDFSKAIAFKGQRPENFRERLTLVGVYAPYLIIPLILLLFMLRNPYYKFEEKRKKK
Briefly: σ2 receptor binding assay, [^3H]DTG in the presence of (+)-pentazocine, rat liver membrane homogenates. Conditions: for σ1:σ2 Ratio: ratio of Ki values. As for the experimental part: The incubation time was 120 min at room temperature. […] All other procedures were identical to those described for the σ1 receptor binding assay above.

In data set [2] the target is σ1 receptors (Cavia porcellus, UniProt Q60492).
Protocol: In these assays, the novel sigma ligands were dissolved in N,N-dimethylformamide (DMF), DMSO or ethanol, and then diluted in 50 mM Tris-HCl buffer containing 150 mM NaCl and 100 mM EDTA at pH 7.4 prior to performing the σ1 and σ2 receptor binding assays. […] The samples were harvested and filtered rapidly through a 96-well fiber glass filter plate (millipore, Billerica, Mass.) that had been presoaked with 100 μL of 50 mM Tris-HCl buffer at pH 8.0 for 1 h.
The Ki values were determine from Scatchard plots.
Data set [3] relates to EMT-6 tumors. Put plainly: Biodistribution of 18F-labeled ligands in mice bearing EMT-6 tumors. Type of data set: in vivo, female Balb/c mice. The note with it: for clearance from the blood (in words): mouse, in vivo. As for the experimental part:
This example illustrates in vivo evaluation of compounds of the present teachings. All animal experiments were conducted in compliance with the Guidelines for the Care and Use of Research Animals established by Washington University's Animal Studies Committee. EMT-6 mouse mammary adenocarcinoma cells (5×10^5 cells in 100 uL of phosphate-buffered saline) were implanted subcutaneously in the scapular region of female Balb/c mice (˜2-month old and 17-22 g; Charles River Laboratories). […] Groups of at least 4 mice were used for each time point. […] After counting, the percentage of the injected dose per gram of tissue (%ID/g) was calculated. The tumor/organ ratios were calculated by dividing the %ID/g of the tumor by the %ID/g of each organ.

Setting [4] is: 60 min (1 h) after i.v. injection.
Where [5] appears, read: 120 min (2 h) after i.v. injection.

σ1 receptors, sequence (Q60492 whole entry): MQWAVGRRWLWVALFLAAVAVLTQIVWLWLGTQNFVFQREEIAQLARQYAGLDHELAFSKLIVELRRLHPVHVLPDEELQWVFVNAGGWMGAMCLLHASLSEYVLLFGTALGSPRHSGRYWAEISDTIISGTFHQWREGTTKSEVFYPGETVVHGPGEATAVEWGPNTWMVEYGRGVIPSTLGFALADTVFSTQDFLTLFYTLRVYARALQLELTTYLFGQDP

In the case of “5-bromo-N-[4-(6,7-dimethoxy-3,4-dihydro-1H-isoquinolin-2-yl)-butyl]-2-(2-fluoro-ethoxy)-3-methoxy-benzamide [compound 3b]”, the Ki came out at 0.386 ± 0.093 µM in data set [1] (rat liver membranes, [^3H]DTG, mean ± SEM) and 15.3 µM in data set [2]. In addition, in data set [1], the “σ1:σ2 Ratio” value is 40.

With `COc1cc2c(cc1OC)CN(CCCCNC(=O)c1cc(Br)ccc1OCC[18F])CC2` [[^18F]3d], in data set [3] (5 min after i.v. injection), the “Biodistribution: blood” value turned out to be 3.57 ± 0.43 %ID/g, the “Biodistribution: bone” value is listed as 2.90 ± 0.39 %ID/g, the “Biodistribution: brain” value was determined as 1.09 ± 0.11 %ID/g and the “Biodistribution: fat” value was 2.85 ± 0.47 %ID/g. In data set [3] (5 min after i.v. injection), the “Biodistribution: heart” value is 3.74 ± 0.37 %ID/g, the “Biodistribution: kidney” value stood at 42.94 ± 3.34 %ID/g, the “Biodistribution: liver” value was determined as 32.60 ± 3.96 %ID/g and the “Biodistribution: lung” value is on record as 12.08 ± 1.98 %ID/g. Further, in data set [3] (5 min after i.v. injection), the “Biodistribution: muscle” value turned out to be 1.95 ± 0.19 %ID/g and the “Biodistribution: tumor (tumor uptake)” value is on record as 3.28 ± 0.41 %ID/g. In data set [3] (30 min after i.v. injection), the “Biodistribution: blood” value worked out at 2.81 ± 0.32 %ID/g, the “Biodistribution: bone” value came to 1.17 ± 0.06 %ID/g, the “Biodistribution: brain” value worked out at 0.40 ± 0.03 %ID/g and the “Biodistribution: fat” value turned out to be 0.96 ± 0.13 %ID/g. Further, in data set [3] (30 min after i.v. injection), the “Biodistribution: heart” value turned out to be 1.55 ± 0.11 %ID/g, the “Biodistribution: kidney” value is reported as 17.55 ± 2.75 %ID/g, the “Biodistribution: liver” value worked out at 13.12 ± 1.39 %ID/g and the “Biodistribution: lung” value came out at 3.08 ± 0.23 %ID/g. Besides, in data set [3] (30 min after i.v. injection), the “Biodistribution: muscle” value is given as 0.98 ± 0.18 %ID/g and the “Biodistribution: tumor (tumor uptake)” value is on record as 2.59 ± 0.19 %ID/g. Further, the “Biodistribution: tumor (tumor uptake)” value in data set [3] (setting [4]) was 2.09 ± 0.28 %ID/g. Also, in data set [3] (60 min after i.v. injection), the “Biodistribution: blood” value turned out to be 1.69 ± 0.63 %ID/g, the “Biodistribution: bone” value was found to be 1.12 ± 0.16 %ID/g, the “Biodistribution: brain” value was found to be 0.32 ± 0.05 %ID/g and the “Biodistribution: fat” value was 0.38 ± 0.05 %ID/g. Further, in data set [3] (60 min after i.v. injection), the “Biodistribution: heart” value amounted to 1.04 ± 0.21 %ID/g, the “Biodistribution: kidney” value came to 6.92 ± 1.61 %ID/g, the “Biodistribution: liver” value is given as 5.69 ± 0.54 %ID/g and the “Biodistribution: lung” value worked out at 1.60 ± 0.27 %ID/g. In data set [3] (60 min after i.v. injection), the “Biodistribution: muscle” value was 0.58 ± 0.11 %ID/g. Moreover, in data set [3] (setting [5]), the “Biodistribution: tumor (tumor uptake)” value was 0.96 %ID/g and 0.96 ± 0.24 %ID/g. Further, in data set [3] (120 min after i.v. injection), the “Biodistribution: blood” value is given as 0.52 ± 0.10 %ID/g, the “Biodistribution: bone” value is on record as 1.28 ± 0.28 %ID/g, the “Biodistribution: brain” value was found to be 0.20 ± 0.03 %ID/g and the “Biodistribution: fat” value worked out at 0.15 ± 0.06 %ID/g. In data set [3] (120 min after i.v. injection), the “Biodistribution: heart” value is listed as 0.40 ± 0.07 %ID/g, the “Biodistribution: kidney” value is reported as 1.12 ± 0.16 %ID/g, the “Biodistribution: liver” value came to 2.30 ± 0.33 %ID/g and the “Biodistribution: lung” value was 0.51 ± 0.08 %ID/g. Besides, in data set [3] (120 min after i.v. injection), the “Biodistribution: muscle” value came out at 0.28 ± 0.10 %ID/g. In addition, the “tumor:fat ratio” value in data set [3] (2 h after i.v. injection) was roughly 6. In addition, in data set [3], the “clearance from the blood (in words)” value was “cleared much more slowly from the blood than [^18F]3c”.

For the molecule `COc1cc2c(cc1OC)CN(CCCCNC(=O)c1cc(I)ccc1OCC[18F])CC2` [[^18F]3e], in data set [3] (5 min after i.v. injection), the “Biodistribution: blood” value is 4.60 ± 0.44 %ID/g, the “Biodistribution: bone” value was determined as 2.59 ± 0.28 %ID/g, the “Biodistribution: brain” value is on record as 0.55 ± 0.04 %ID/g and the “Biodistribution: fat” value came out at 2.32 ± 0.46 %ID/g. In data set [3] (5 min after i.v. injection), the “Biodistribution: heart” value came to 3.22 ± 0.27 %ID/g, the “Biodistribution: kidney” value came out at 36.07 ± 2.28 %ID/g, the “Biodistribution: liver” value came out at 37.26 ± 4.88 %ID/g and the “Biodistribution: lung” value is given as 9.71 ± 0.83 %ID/g. Moreover, in data set [3] (5 min after i.v. injection), the “Biodistribution: muscle” value is on record as 1.52 ± 0.10 %ID/g and the “Biodistribution: tumor (tumor uptake)” value was 2.54 ± 0.62 %ID/g. Also, in data set [3] (30 min after i.v. injection), the “Biodistribution: blood” value was determined as 4.30 ± 0.59 %ID/g, the “Biodistribution: bone” value stood at 1.31 ± 0.14 %ID/g, the “Biodistribution: brain” value worked out at 0.44 ± 0.04 %ID/g and the “Biodistribution: fat” value amounted to 1.04 ± 0.06 %ID/g. Also, in data set [3] (30 min after i.v. injection), the “Biodistribution: heart” value came to 2.37 ± 0.29 %ID/g, the “Biodistribution: kidney” value worked out at 17.43 ± 1.95 %ID/g, the “Biodistribution: liver” value is listed as 17.35 ± 2.72 %ID/g and the “Biodistribution: lung” value was determined as 4.07 ± 0.46 %ID/g. For the same molecule, in data set [3] (30 min after i.v. injection), the “Biodistribution: muscle” value is recorded as 1.12 ± 0.05 %ID/g and the “Biodistribution: tumor (tumor uptake)” value amounted to 2.81 ± 0.62 %ID/g. Further, in data set [3] (setting [4]), the “Biodistribution: tumor (tumor uptake)” value stood at 2.72 ± 0.13 %ID/g. In addition, in data set [3] (60 min after i.v. injection), the “Biodistribution: blood” value is 3.39 ± 0.29 %ID/g, the “Biodistribution: bone” value is given as 0.99 ± 0.07 %ID/g, the “Biodistribution: brain” value amounted to 0.36 ± 0.02 %ID/g and the “Biodistribution: fat” value was determined as 0.62 ± 0.10 %ID/g. For the same molecule, in data set [3] (60 min after i.v. injection), the “Biodistribution: heart” value amounted to 1.61 ± 0.11 %ID/g, the “Biodistribution: kidney” value was determined as 9.36 ± 0.90 %ID/g, the “Biodistribution: liver” value came to 7.31 ± 0.98 %ID/g and the “Biodistribution: lung” value was 2.34 ± 0.12 %ID/g. For the same molecule, in data set [3] (60 min after i.v. injection), the “Biodistribution: muscle” value stood at 0.83 ± 0.04 %ID/g. For the same molecule, the “Biodistribution: tumor (tumor uptake)” value in data set [3] (setting [5]) is 1.92 %ID/g and 1.92 ± 0.10 %ID/g. In addition, in data set [3] (120 min after i.v. injection), the “Biodistribution: blood” value was found to be 1.92 ± 0.59 %ID/g, the “Biodistribution: bone” value was 1.67 ± 0.27 %ID/g, the “Biodistribution: brain” value stood at 0.37 ± 0.06 %ID/g and the “Biodistribution: fat” value stood at 0.44 ± 0.08 %ID/g. In data set [3] (120 min after i.v. injection), the “Biodistribution: heart” value is 1.00 ± 0.23 %ID/g, the “Biodistribution: kidney” value stood at 3.92 ± 0.98 %ID/g, the “Biodistribution: liver” value is reported as 4.25 ± 1.56 %ID/g and the “Biodistribution: lung” value was 1.36 ± 0.24 %ID/g. Besides, the “Biodistribution: muscle” value in data set [3] (120 min after i.v. injection) was found to be 0.60 ± 0.11 %ID/g. In data set [3], the “clearance from the blood (in words)” value is “cleared much more slowly from the blood than [^18F]3c”.

Regarding `COc1cc2c(cc1OC)CN(CCNC(=O)c1cc(C)ccc1OCCF)CC2` [compound 3a, [N-(6,7-dimethoxy-3,4-dihydro-1H-isoquinolin-2-yl)-ethyl]-2-(2-fluoro-ethoxy)-5-methyl benzamide], in data set [1], the Ki stood at 0.102 ± 0.004 µM and the “σ1:σ2 Ratio” value came to 222. Further, the inhibition constant (Ki) in data set [2] is 22.8 µM.

Regarding `COc1cc2c(cc1OC)CN(CCCCNC(=O)c1cc(Br)ccc1OCCF)CC2` [compound 3d, N-[4-(6,7-dimethoxy-3,4-dihydro-1H-isoquinolin-2-yl)-butyl]-2-(2-fluoro-ethoxy)-5-bromo-benzamide], in data set [1], the Ki was determined as 0.00065 ± 0.00022 µM and the “σ1:σ2 Ratio” value is reported as 1,656. Besides, the Ki in data set [2] was determined as 1.08 µM.

As for `COc1cc2c(cc1OC)CN(CCCCNC(=O)c1cc(I)ccc1OCCF)CC2` [compound 3e, N-[4-(6,7-dimethoxy-3,4-dihydro-1H-isoquinolin-2-yl)-butyl]-2-(2-fluoro-ethoxy)-5-iodo-benzamide], in data set [2], affinity was put at a Ki of 1.3 µM.

On to `COc1cc2c(cc1OC)CN(CCCCNC(=O)c1cc(I)cc(OC)c1OCCF)CC2` [compound 3f], for which, in data set [1], the Ki was 0.00026 ± 7e-05 µM and the “σ1:σ2 Ratio” value was 8,190. For the same molecule, the inhibition constant (Ki) in data set [2] is 2.15 µM.
